We go through 122 compounds from a melting point compilation (Tetko et al.).

The melting point is the temperature, or range, at which the solid turns liquid.

On to `O=C(C=NO)Nc1cccc(C(F)(F)F)c1`, for which the melting point lay within 115 to 117 °C. Turning to `CC(Cl)C(=O)Nc1cccc2ccccc12` (configuration not stated), the melting point lay in the range of 146 to 148 °C. Consider `Cc1ccccc1OCc1csc(N)n1`, for which the melting point was in the range of 95 to 97 °C.

For the compound `Cc1sc2nc(CCl)[nH]c(=O)c2c1-c1ccccc1`, the melting point lay within 259 to 261 °C. For `CSc1ccc(CC(=O)O)cc1`, the melting point lay within 97 to 98 °C. With `O=C(O)c1csc(S(=O)(=O)N2CCOCC2)c1` the figure was 226 to 228 °C. In turn, `CC(C)NC(=O)Nc1ccc(O)c(C(=O)O)c1` displayed a melting point of 192 to 194 °C. Take `Cc1cncc(N)c1`: the melting point was in the range of 59 to 63 °C. Compound `N#CCc1c[nH]c2ccc(Br)cc12` gave a melting point of 103 to 105 °C. `Cc1cc(NC(=O)CCl)on1` showed a melting point of 106 to 108 °C.

As to `O=Cc1cccc(OCC(=O)O)c1`, the melting point was in the range of 111 to 113 °C. The value for `O=C(O)C1Cc2ccccc2CN1C(=O)c1ccccc1` (configuration not stated) was 141 to 143 °C. `O=C(O)CCc1cn(Cc2ccc(Cl)cc2)c2ccccc12` registered a melting point of 139 to 141 °C. The value for `COc1ccc(NC(=O)Oc2ccccc2)c([N+](=O)[O-])c1` was 43 to 48 °C; that for `COc1ccc(Cc2cnc(NC(=O)CCl)s2)cc1` was 152 to 154 °C; that for `O=S(=O)(Cl)Cc1ccc(F)cc1Br` was 45 to 47 °C. For `Cc1ccc(I)c(O)c1`, the melting point is 62 to 64 °C. The value for `COc1ccccc1NS(=O)(=O)c1ccc(N2CCOCC2)c(N)c1` was 150 to 152 °C; that for `CN1CCc2cc(C=O)ccc21` was 38 to 40 °C; that for `COc1ccc(/C=N/OCC(=O)O)cc1` was 101 to 103 °C. With `Cc1ccc([N+](=O)[O-])c2cccnc12` the figure was 87 to 89 °C; with `CC1(C)CNCCS1(=O)=O`, 46 to 48 °C. As for `CC1CCC2(CC1)COC(=O)N2` (configuration not stated), the melting point is 126 to 128 °C.

Compound `Cn1nc(C2CCCCC2)cc1N` showed a melting point of 169 to 171 °C. For the compound `CC(=O)N(c1ccc(C(F)(F)F)cc1)c1nc(CCl)cs1`, the melting point lay in the range of 115 to 117 °C. Compound `CNc1ccc(C(=O)N2CCOCC2)cc1C` gave a melting point of 107 to 109 °C. The value for `NC(CC(=O)O)c1ccc(C(F)(F)F)cc1` (configuration not stated) was 219 to 221 °C.

Regarding `CC(=O)NC(CC(N)=O)C(=O)O` (configuration not stated), the melting point was in the range of 168 to 170 °C. The value for `COc1ccccc1C(C)(C)C(=O)O` was 121 to 123 °C; that for `Cc1ccccc1Sc1ccc(C(=O)O)cc1` was 178 to 180 °C; that for `NC(=S)c1cc([N+](=O)[O-])ccc1N` was 171 to 173 °C. The value for `Nc1ccc(OCc2cccs2)cc1` was 61 to 63 °C; that for `O=C(O)c1ccn(-c2cccc(Br)c2)n1` was 142 to 144 °C; that for `CC(C)(C)c1ccc(C(=O)NCCC(=O)O)cc1` was 129 to 131 °C.

In turn, `Nc1cccc(-c2nnnn2C2CC2)c1` registered a melting point of 137 to 139 °C. With `CCCCCNCC(N)=O` the figure was 64 to 66 °C. Compound `Cc1ccc(S(=O)(=O)Cl)cc1C(=O)O` yielded a melting point of 149 to 151 °C. `COc1ccc(-c2csc(C)n2)cc1` had a melting point of 55 to 57 °C.

Compound `Cc1cc(C)c2c(=O)[nH][nH]c2n1` showed a melting point of 249 to 251 °C. The value for `O=C(O)CCn1ccc2cc(Cl)ccc21` was 59 to 61 °C; that for `O=C(O)C1CCCN1C(=O)C12CC3CC(CC(C3)C1)C2` (configuration not stated) was 193 to 195 °C; that for `O=C(O)Cn1nnc(COc2ccccc2)n1` was 111 to 113 °C.

Compound `COc1ccc(-c2ccc(CCC(=O)O)o2)cc1` returned a melting point of 142 to 144 °C. `O=C1Nc2cc3c(cc2C1=O)OCCO3` yielded a melting point of 210 to 212 °C. With `NC(=S)Cc1ccccc1F`, the melting point was in the range of 92 to 94 °C. Regarding `Cc1sc2nc(CCCC(=O)O)[nH]c(=O)c2c1C`, the melting point fell in the range of 243 to 245 °C. `O=C(O)c1cnn(Cc2ccccc2Cl)c1` showed a melting point of 144 to 146 °C. With `COC(=O)c1ccc(N)cc1C` the figure was 69 to 71 °C; with `O=C1Nc2ccc(S(=O)(=O)Cl)cc2C1=O`, 184 to 186 °C; with `NC(=O)Cc1ccc(OCC(=O)O)cc1`, 171 to 173 °C. As to `COc1cc(Br)c(F)cc1S(=O)(=O)Cl`, the melting point fell in the range of 79 to 81 °C. With `Nc1nc(-c2ccc3c(c2)OCO3)cs1` the figure was 176 to 180 °C.

`COc1ccc(SC)c(OC)c1C(=O)O`: the melting point lay within 117 to 119 °C. `NC(=O)c1[nH]cnc1N` registered a melting point of 249 to 251 °C. The value for `COc1cccc(-c2nonc2N)c1` was 74 to 76 °C; that for `CCn1ncc(C#N)c1N` was 159 to 161 °C. In turn, `CC(C)CCn1cc(C(=O)O)nn1` displayed a melting point of 187 to 189 °C. With `CCc1c(C(=O)O)[nH]c(C)c1C(C)=O` the figure was 202 to 204 °C; with `O=C(O)Cc1csc(N2CCCNC2=O)n1`, 184 to 186 °C. In the case of `O=C1c2ccccc2C(=O)N1CC1(CBr)CCCC1`, the melting point lay in the range of 68 to 70 °C. With `CC(C)(C)OC(=O)c1cc(C(=O)O)nn1-c1ccccc1` the figure was 259 to 261 °C; with `O=C(CCl)c1c[nH]c(C(=O)N2CCCC2)c1`, 200 to 204 °C; with `Cc1ccccc1-n1nc(C(C)(C)C)cc1N`, 112 to 114 °C. The value for `O=C(O)CCNS(=O)(=O)c1ccc(F)cc1` was 123 to 127 °C; that for `Cc1ccc2c(c1)OC(C)C(=O)N2` (configuration not stated) was 154 to 156 °C. Turning to `c1ccc(NCc2cccs2)nc1`, the melting point was in the range of 76 to 78 °C.

On to `Nc1nnc2ccc(Cl)nn12`, for which the melting point lay within 274 to 276 °C. The value for `Clc1ncncc1I` was 54 to 56 °C; that for `CC(C)c1nnc(C(C)C)[nH]1` was 147 to 149 °C; that for `COc1cc2ncc(Cl)nc2cc1OC` was 149 to 151 °C.

In turn, `COC(=O)c1sc2c(c1N)CCC(C(C)(C)C)C2` (configuration not stated) came in with a melting point of 153 to 155 °C. `Fc1ccccc1-n1cnnc1S` registered a melting point of 167 to 169 °C.

As to `CN(C)C(=O)CC(=O)O`, the melting point was 70 to 72 °C. The value for `Cn1ccc(C(=O)NC2(C(=O)O)CCCCCC2)cc1=O` was 242 to 244 °C. In the case of `Cc1cc(S(N)(=O)=O)cc(C(=O)O)c1C`, the melting point was in the range of 261 to 263 °C. The value for `Cc1nc(C(=O)O)ccc1C#N` was 150 to 152 °C; that for `Nc1nc(CCl)nc(Nc2ccc(F)cc2)n1` was 170 to 172 °C; that for `O=C(O)c1sccc1S(=O)(=O)Nc1cccc2cn[nH]c12` was 236 to 238 °C. `CCc1ccc(N)cc1S(N)(=O)=O` had a melting point of 136 to 138 °C. Compound `Cc1cccc(Nc2nnc(S)s2)c1C` showed a melting point of 195 to 197 °C. As for `CC1=NN(c2ccc(Cl)nn2)C(=O)C1`, the melting point was in the range of 229 to 231 °C.

With `O=Cc1c(Cl)nc2ccccn2c1=O`, the melting point fell in the range of 213 to 215 °C. The value for `O=C(c1ccccc1F)N1CCC(O)CC1` was 104 to 106 °C. With `O=c1[nH]nc(-c2ccccc2)cc1C(F)(F)F` the figure was 184 to 186 °C. With `Clc1nccc(OCc2ccccc2)n1` the figure was 49 to 51 °C; with `NC(CSCCc1ccccc1)C(=O)O` (configuration not stated), 210 to 212 °C. In turn, `O=C(O)c1ccc(NC2CC2)nc1` came in with a melting point of 178 to 180 °C.

In the case of `COCC(C)(O)C(=O)O` (configuration not stated), the melting point is 53 to 55 °C. The compound `CCNC(c1cccnc1)c1ccc2c(c1)CCO2` (configuration not stated) returned a melting point of 50 to 52 °C. With `Nc1cccc2c1CN(CCO)C2` the figure was 109 to 111 °C. `O=[N+]([O-])c1ccc(Cl)c(S(=O)(=O)Cl)c1` returned a melting point of 85 to 87 °C.

As to `CCc1cc(=O)[nH]c(-c2cccnc2)n1`, the melting point lay within 151 to 153 °C. Regarding `Cc1ccccc1-c1noc(S)n1`, the melting point lay within 150 to 152 °C.

For `CCNC(=O)c1ccccc1N`, the melting point was 93 to 95 °C. The value for `NS(=O)(=O)c1c(Br)cc(F)cc1Br` was 174 to 176 °C; that for `Cc1ccn2c(N)c(-c3ccc(F)cc3)nc2c1` was 188 to 190 °C. With `O=C1COCC(=O)N1` the figure was 141 to 143 °C; with `CCc1nnc(S)n1N`, 143 to 145 °C; with `CCOc1ccc(C(=O)N2CCCC(C(=O)O)C2)cc1OCC` (configuration not stated), 189 to 191 °C. With `Cn1cc(-c2cncc(C(=O)O)c2)cn1` the figure was 260 to 262 °C; with `Nc1cc2c(cc1Sc1ccccc1)OCCO2`, 74 to 76 °C. Compound `CCC(C)n1c(SCC(=O)O)nnc1-c1ccccc1` (configuration not stated) yielded a melting point of 155 to 157 °C. In the case of `NC(=O)CCCCCl`, the melting point was in the range of 76 to 78 °C. As for `CC(C)(C)OC(=O)NC1CCN(c2ccc(C#N)cn2)CC1`, the melting point lay within 188 to 190 °C. The value for `CC(C)(C)c1ccc(-c2nnc(CCl)o2)cc1` was 65 to 67 °C; that for `N#Cc1cccc(NC(=O)CCCl)c1` was 98 to 100 °C; that for `O=c1ccnc(-c2ccccc2)[nH]1` was 204 to 206 °C. Compound `CN1CCN(S(N)(=O)=O)C(c2ccccc2)C1` (configuration not stated) gave a melting point of 109 to 111 °C. In turn, `Cc1cc(N2CCCC2=O)ccc1Br` yielded a melting point of 107 to 109 °C. With `CC(Cl)c1nc(-c2nnc[nH]2)no1` (configuration not stated) the figure was 187 to 189 °C; with `CC(=O)N1CCC(S(=O)(=O)Cl)CC1`, 95 to 97 °C. For `CCc1ccccc1Nc1nnc(S)s1`, the melting point is 159 to 161 °C. On to `O=C(O)C1CC12CCOc1ccccc12` (configuration not stated), for which the melting point fell in the range of 159 to 161 °C.

The compound `Cc1nn(-c2ccc(C(F)(F)F)cn2)c(C)c1CC(=O)O` gave a melting point of 142 to 144 °C. The value for `Cc1cccc(C)c1-n1nnnc1S` was 146 to 148 °C; that for `Sc1nnc(Nc2ccccc2Cl)s1` was 174 to 176 °C. The value for `Nc1ccc(CN2C(=O)CNC2=O)cc1` was 168 to 170 °C; that for `COc1ccc(-n2c(C)c(C)c3c(N)ncnc32)cc1` was 231 to 233 °C. With `Cn1ncc2c(N)ncnc21`, the melting point fell in the range of 264 to 266 °C. With `Sc1nc(-c2ccccc2Cl)no1` the figure was 100 to 102 °C; with `CCOC(=O)CCc1nnc(-c2ccc(Cl)cc2)o1`, 100 to 102 °C. `CS(=O)(=O)c1cccc(C(N)c2ccc(F)cc2)c1` (configuration not stated) registered a melting point of 88 to 90 °C.
